Measured values as given in US8598122B2, “Antagonistic peptides for frizzled-1 and frizzled-2” (Universiteit Maastricht, priority 2009, dated 2013).
Entries after “also recorded” stand apart in the source; their conditions may differ. Where a SMILES comes first, the peptide text is derived from it.

How the values were obtained:
frizzled-1 (rFzd-1) = target: T1, frizzled-1 (rFzd-1) (Rattus norvegicus, UniProt Q08463); assay: Activity assay: Wnt3a-induced luciferase (superTOPflash) in HEK cells transfected with frizzled-1; type: cell-based; details: peptide 1.10^−8 M
T1 construct: expressed in transfected cells; host or cells: HEK293 superTOPflash (human embryonic kidney), transient, pcDNA3.1/hygro
T1 sequence (Q08463 69-641): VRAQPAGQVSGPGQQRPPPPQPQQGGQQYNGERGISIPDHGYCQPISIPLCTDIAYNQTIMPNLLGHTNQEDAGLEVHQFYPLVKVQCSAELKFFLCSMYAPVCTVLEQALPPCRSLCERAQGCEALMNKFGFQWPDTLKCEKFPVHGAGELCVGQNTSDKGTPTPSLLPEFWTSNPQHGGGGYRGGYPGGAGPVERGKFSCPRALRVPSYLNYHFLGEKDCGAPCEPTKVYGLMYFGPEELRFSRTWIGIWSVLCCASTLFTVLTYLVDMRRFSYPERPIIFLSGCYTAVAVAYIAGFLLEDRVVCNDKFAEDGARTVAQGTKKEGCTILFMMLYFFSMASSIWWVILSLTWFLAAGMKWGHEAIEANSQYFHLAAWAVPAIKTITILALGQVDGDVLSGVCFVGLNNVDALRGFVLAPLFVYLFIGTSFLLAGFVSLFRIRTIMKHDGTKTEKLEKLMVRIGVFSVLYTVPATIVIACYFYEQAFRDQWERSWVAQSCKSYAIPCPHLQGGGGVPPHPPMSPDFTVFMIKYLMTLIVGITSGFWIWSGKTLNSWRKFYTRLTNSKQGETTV
Description: Human embryonic kidney (HEK) cells were used for screening. These cells have a luciferase construct stably transfected into the genome (see FIG. 2A), such that when the frizzled receptor is activated and β-catenin is increased, the luciferase is activated by transcription and light can be measured.
The peptides were tested by transfecting the frizzled-1 or the frizzled-2 receptor and addition of UM206(S-S) to the cell culture. For testing antagonistic activity, UM206 was added and the natural ligand Wnt3a was added, which is a natural stimulus for the canonical pathway.
Day 2: Transfection 12-well plates • heat Fugene6 and DNA 15 minutes at RT • 2 ml serum-free medium in tube • add 3μl fugene • add 2 μg DNA • incubate 30 minutes at RT • wash with PBS • add 50 μtransfectiemix • add 1 ml antibiotica-free medium
Day 3: Add conditioned medium or UM206
Day 4: Luciferase activity measurements • remove medium • wash with PBS • add 500 μl ⅕ lysisbuffer • shake for 60 minutes • centrifuge in tube • 20 μl lysaat and 50 μl luciferase in new tube for measurement • vortex • measure
To determine the inhibitory constant of UM206-8, HEK293-superTOPflash cells were transfected with either rFzd-1 or -2 and incubated with Wnt3a (10^−9M) in the presence of increasing concentrations of either of the peptides (FIG. 15). For UM206, a biphasic inhibition curve was observed that was best fitted with a two-binding-state model.
(§1) The cell lines were cultured in 75 cm^2 culture flasks (Corning, Schiphol, the Netherlands) in Dulbeco's modified essential medium with L-glutamine (2 mM), 10% fetal calf serum (Invitrogen, Merelbeke, Belgium), and 1% gentamycin (Sigma-Aldrich, Zwijndrecht, The Netherlands). Before starting the experiment, the cell lines were treated with plasmocin 25 μg/ml (Invivogen, Toulose, France) and tested with a mycoalert mycoplasma detection kit (Lonza, Rockland Me., USA). Cells were transiently transfected with Fugene6 (Roche, Indianapolis Ind., USA) with plasmid DNA, pcDNA3.1/hygro (Invitrogen) with frizzled-1/2/4 or Wnts 3a-5a or with pcDNA3.0 (Invitrogen) containing the β-catenin or frizzled-5 sequence. After transfection, the cells were cultured for 24 hours in conditioned medium, collected from the cultured L-cells, L-cells with Wnt3a or 5a (Invitrogen). At the same moment the antagonist was added.

hFzd-4 = target: T2, hFzd-4 (Homo sapiens, UniProt Q9ULV1); assay: Luciferase activity in HEK293 superTOPflash cells overexpressing hFzd-4; type: cell-based; details: 1.10^−8 M
T2 construct: expressed in transfected cells; host or cells: HEK293 superTOPflash, transient, pcDNA3.1/hygro
T2 sequence (Q9ULV1 37-537): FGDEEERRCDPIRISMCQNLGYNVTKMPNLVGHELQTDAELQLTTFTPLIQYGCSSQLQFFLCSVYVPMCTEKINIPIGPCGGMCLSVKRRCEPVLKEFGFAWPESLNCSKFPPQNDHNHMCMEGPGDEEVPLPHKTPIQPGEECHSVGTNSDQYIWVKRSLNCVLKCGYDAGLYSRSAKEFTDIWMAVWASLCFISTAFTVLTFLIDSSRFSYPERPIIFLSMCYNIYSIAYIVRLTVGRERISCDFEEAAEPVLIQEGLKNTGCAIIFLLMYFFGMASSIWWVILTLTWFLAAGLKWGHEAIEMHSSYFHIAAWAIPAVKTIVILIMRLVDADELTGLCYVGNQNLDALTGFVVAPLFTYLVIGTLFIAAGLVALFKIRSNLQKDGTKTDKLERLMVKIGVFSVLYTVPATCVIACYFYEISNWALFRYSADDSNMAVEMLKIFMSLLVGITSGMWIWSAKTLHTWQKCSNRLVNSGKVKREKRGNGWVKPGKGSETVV
Description: In FIG. 3, Panel E, the efficacy of UM206 to block the Wnt3a-induced activation of luciferase activity in HEK293 superTOPflash cells transfected with different Fzds is shown.
as §1

CSCC[C@H](NC(=O)CNC(=O)[C@H](CCC(=O)O)NC(=O)[C@H](CO)NC(=O)[C@@H](NC(=O)[C@H](CCCCN)NC(=O)[C@H](CC(N)=O)NC(=O)[C@H](CS)NC(C)=O)[C@@H](C)O)C(=O)N[C@@H](CC(=O)O)C(=O)NCC(=O)N[C@@H](CS)C(=O)N[C@@H](CCC(=O)O)C(=O)N[C@@H](CC(C)C)C(N)=O [UM206, Ac-Cys-Asn-Lys-Thr-Ser-Glu-Gly-Met-Asp-Gly-Cys-Glu-Leu-NH2] (Ac-CNKTSEGMDGCEL-NH2)
Blocking of Wnt3a-induced luciferase activity, rFzd-1 (frizzled-1 (rFzd-1)): blocked almost completely; also recorded: abolished the induction of luciferase activity almost completely | Effect on Wnt3a-induced luciferase activity, frizzled-4 (hFzd-4): no effect
